Source: US4333944A, “8-Halo-6-phenyl-4H-s-triazolo (3,4-c) thieno 1,4-diazepin-1-ones” (Boehringer Ingelheim GmbH, priority 1977, dated 1982)

Experiments:
[1] = test system: lethal effect of 125 mgm/kg of pentylene tetrazole; test: Pentetrazole antagonism, rat; format: in vivo, rat (albino, FW49); conditions: po, 1 h, peroral, suspension in olive oil, 125 mgm/kg pentylene tetrazole i.p. one hour after test compound, graphically determined
Description: (§1) Albino mice (NMRI) having a body weight of 20 to 25 gm or albino rats (FW49) having a body weight of 140 to 200 gm were used for the tests, and the test compound was in all cases administered perorally in suspension in olive oil by means of an esophageal sound.
(§2) The pentylene tetrazole is administered intraperitoneally one hour after administration of the test compound [see M. I. Gluckmann, Curr. Ther. Res. 7, 721 (1965)].
(§3) The values shown in the following table are graphically determined.

[2] = test system: lethal effect of 125 mgm/kg of pentylene tetrazole; test: Pentetrazole antagonism, mouse; format: in vivo, mouse (albino, NMRI); conditions: po, 1 h, peroral, suspension in olive oil, 125 mgm/kg pentylene tetrazole i.p. one hour after test compound, graphically determined
Description: as §1, §2, §3

[3] = test system: test animals in a conflict situation; test: Conflict situation (inhibition of passive avoidance); format: in vivo, rat (albino, FW49); conditions: po; rat; peroral, suspension in olive oil; dose at which animals depress lever ten times despite signalled shock; graphically determined
Text: as §1
Determination of the dose of the test compound (DT10) at which the test animals in a conflict situation depress a lever ten times to receive a food pellet, even though a simultaneous visual signal indicates to them that they will also receive an electrical shock at the same time [see J. Geller, Arch. Int. Pharmacodyn. 149, 243 (1964)].
as §3

[4] = Acute toxicity; design: species or system mouse (albino, NMRI); conditions: in vivo, po; mouse; peroral, suspension in olive oil; graphically determined
Text: as §1
Determination of the median lethal dose (LD50), i.e. the dose which causes 50% of the test animals to die [Litchfield and Wilcoxon, J. Phamacol. Exper. Therap. 96,99 (1949)].
as §3

## O=c1[nH]nc2n1-c1sc(Br)cc1C(c1ccccc1Cl)=NC2 [Example 1, 8-Bromo-6-(o-chloro-phenyl)-4H-s-triazolo[3,4-c]thieno-[2,3-e]1,4-diazepin-1-one]
[1]
  ED50: 1.9 mg/kg
[2]
  ED50: 0.37 mg/kg
[3]
  ED (DT10 (ten lever presses)): 1.25 mg/kg
[4]
  LD50: > 2000 mg/kg
